Results as given in PMC12476087, “Loading of Dicarboxylatoplatinum(II)‐NHC Complexes in Bacterial Ghosts as an Advanced Development in Cancer Therapy” (Archiv Der Pharmazie, 2025).

Test: Stability in aqueous solution (RP‐HPLC‐MS)
Format: physicochemical
Conditions: 0.5 mM in water, rt; m/z 446.1 (1, 20 h), m/z 602.2 (2)
Method: Samples were analyzed by HPLC‐MS immediately after preparation and at selected time points during 24 h of incubation at rt. […] As stationary phase, a Gemini C18 110 Å; 150 × 4.6 mm; 3.0 µm particles (Phenomenex Ltd.; Aschaffenburg, Germany) column was employed and equipped with a 4 × 3 mm guard column of the identical material. […] The oven temperature was maintained at 30°C and the MS analysis was performed with split flow 1:5 of the eluate in positive ionization mode (capillary voltage 4.5 kV; source temperature 320°C; dry gas 10 L/min; nebulizer gas pressure 30 psi, scan range m/z 50–1500). The injection volume of the sample solution (V sample) was set to 10 µL. Sample degradation was evaluated by integration of the extracted ion chromatograms at the indicated m/z ± 0.5 (based on the monoisotopic peaks).

| Compound | change of HPLC‐MS signal intensity in aqueous solution |
| --- | --- |
| CCN1[C]([Pt]([O]C(C)=O)([O]C(C)=O)[SH](C)(C)=O)N(CC)c2ccccc21 [Compound 1, (SP‐4‐2)‐Diacetato(1,3‐diethylbenzimidazol‐2‐ylidene)(dimethylsulfoxide)platinum(II)] | No significant decrease in the intensity of this signal |
| (SP‐4‐2)‐Diacetatobis(1,3‐diethylbenzimidazol‐2‐ylidene)platinum(II) [Compound 2] | progressively decreased over time |
